{"source": "patent US7625927B2", "about": "“Method of treating glaucoma” (Alcon Research, Ltd., priority 2006, dated 2009)", "test_system": "cultured adult rat retinal ganglion cells (RGCs)", "assay": "Glutamate-induced toxicity in cultured adult rat retinal ganglion cells (RGC survival, Thy-1-positive cell count)", "type": "cell-based", "conditions": "Compound at 1 μM, 30 min pre-treatment, then 100 μM glutamate for 3 days; Thy-1-positive healthy cells counted; 70% of RGCs survived with glutamate alone", "protocol": "Adult Sprague-Dawley rats were euthanized by CO2 asphyxiation. Their eyes were enucleated and the retinas isolated. Retinal cells were treated with of papain solution for 25 min at 37° C., then washed 3 times with 5 mL RGC culture medium (Neurobasal medium with various nutrient supplements+1% fetal calf serum). Retinal cells were dispersed by trituration. Cell suspension was placed onto poly-D-lysine- and laminin-coated 8-well chambered culture slides. The cells were then cultured in 95% air/5% CO2 at 37° C.\nFor glutamate-induced toxicity studies, cells were pre-treated with vehicle or the indicated compounds for 30 minutes, followed by 100 μM glutamate for 3 days. At the end of the incubation period, the cells were fixed and labeled for Thy-1, a RGC marker, by immunocytochemistry. Cell survival was quantified by manually counting Thy-1-positive healthy cells in each well."}
{"smiles": "COC(=O)CNC(=O)c1ncccc1O", "note": "[Compound 1]", "values": [{"measurement": "protection against glutamate-induced cytotoxicity (RGC survival)", "value": "protective against this insult"}]}
